How the values were obtained:
[1] = tested on: HIV-1 IIIB; details: cited from earlier work
[2] = Pharmacokinetics after intravenous dosing in cynomolgus monkeys; type: in vivo, cynomolgus monkeys (Macaca fasicularis); details: plasma
Procedure: For determining pharmacokinetic properties, an HIV fusion inhibitor peptide or a base sequence from which an HIV fusion inhibitor peptide is derived was dosed intravenously in cynomolgus monkeys (Macaca fasicularis) (other animal models may be used for determining pharmacokinetic properties, as known in the art). At various times post-dose, blood samples were drawn and plasma isolated by centrifugation. Plasma samples were stored frozen until analysis by LC-MS (liquid chromatography/mass spectrometry) in the electrospray, positive-ion mode. An HIV fusion inhibitor or base sequence was eluted from a C18 or C8 HPLC column with a gradient of acetonitrile in a buffer of 10 mM ammonium acetate, pH 6.8. At the time of analysis, plasma samples were deproteinated with either two or three volumes of acetonitrile containing 0.5% formic acid. Duplicate calibration standards in cynomolgus plasma samples were prepared at the same time as the samples and analyzed before and after the samples containing either HIV fusion inhibitor peptide or base sequence. Pharmacokinetic properties were calculated from the plasma concentration-time data using either mono-exponential or bi-exponential mathematical models. Models were derived by non-linear least squares optimization. A 1/C^2 weighting of concentrations was used. […]

[3] = tested on: 584.000030; experiment: In vitro resistance selection in MT2 cells, cMAGI susceptibility, isolate 584.000030; type: cell-based, HIV; details: starting isolate 584.000030
Description: (§1) Assessment of biological properties included measurement of antiviral activity against HIV-1 strains. […] These assays score for reduction of infectious virus titer employing the indicator cell lines MAGI or the CCR5 expressing derivative cMAGI. Both cell lines exploit the ability of HIV-1 tat to transactivate the expression of a β-galactosidase reporter gene driven by the HIV-LTR. The β-gal reporter has been modified to localize in the nucleus and can be detected with the X-gal substrate as intense nuclear staining within a few days of infection. […] The number of infected cells for each control and peptide dilution was determined with the CCD-imager, and then the IC50 was calculated (expressed in μg/ml).
(§2) MT2 cells were infected with virus isolates (IIIB, 030, 060 and 098) and cultured in increasing concentrations of SEQ ID NO:2 (enfuvirtide) or SEQ ID NO:9 to select for resistance. […] Cultures were monitored for cytopathic effect (CPE) using standard techniques and when maximal CPE was achieved, a small aliquot of virus was used for subsequent rounds of infection. […] Peptide-free virus stocks were characterized for gp41 genotypic changes by dideoxy sequencing chemistries and phenotypic susceptibility was determined using a cMAGI infectivity assay.

[4] = tested on: IIIB; experiment: In vitro resistance selection in MT2 cells, cMAGI susceptibility, isolate IIIB; type: cell-based, HIV; details: starting isolate IIIB
Description: as §1, §2

[5] = tested on: 584.000060; experiment: In vitro resistance selection in MT2 cells, cMAGI susceptibility, isolate 584.000060; type: cell-based, HIV; details: starting isolate 584.000060
Description: as §1, §2

[6] = tested on: HIV-1LA1; details: cited from earlier work
[7] = tested on: 584.000098; experiment: In vitro resistance selection in MT2 cells, cMAGI susceptibility, isolate 584.000098; type: cell-based, HIV; details: starting isolate 584.000098
Description: as §1, §2

[8] = tested on: virus isolates (IIIB, 030, 060 and 098); experiment: In vitro resistance selection, geometric mean over the four isolates; type: cell-based, HIV; details: Geometric Mean of four isolates
Description: MT2 cells were infected with virus isolates (IIIB, 030, 060 and 098) and cultured in increasing concentrations of SEQ ID NO:2 (enfuvirtide) or SEQ ID NO:9 to select for resistance. The initial peptide concentration was approximately 2 times the IC50 of each peptide against the corresponding wild type isolate. Peptide concentrations were maintained by adding fresh peptide every 1-3 days. Cultures were monitored for cytopathic effect (CPE) using standard techniques and when maximal CPE was achieved, a small aliquot of virus was used for subsequent rounds of infection. Peptide concentrations were increased 2 to 4-fold depending on the length of time in culture when compared to the growth rate of wild type virus. During the course of selection, peptide-free virus stocks were also collected. Peptide-free virus stocks were characterized for gp41 genotypic changes by dideoxy sequencing chemistries and phenotypic susceptibility was determined using a cMAGI infectivity assay.

[9] = 10 mg/ml in PBS, pH 7.3 to 7.5, 37° C., after several hours
[10] = no additional components; cited from earlier work

## MTWMEWDREINNYTSLIHSLIEESQNQQEKNEQELL [T651]
[1]
  IC50 blocking infection of target cells: 5 ng/mL

## Ac-TTWEAWDRAIAEYAARIEALLRALQEQQEKNEAALREL-NH2 [SEQ ID NO:9, TTWEAWDRAIAEYAARIEALLRALQEQQEKNEAALREL]
[2]
  Clearance: <0.02 L/kg/h

## Ac-TTWEAWDRAIAEYAARIEALLRAAQEQQEKLEAALREL-NH2 [SEQ ID NO:10, TTWEAWDRAIAEYAARIEALLRAAQEQQEKLEAALREL]
[2]
  Clearance: <0.02 L/kg/h

## enfuvirtide
[3]
  Fold Change in IC50: 19 fold
[4]
  Fold Change in IC50: 27 fold
[5]
  Fold Change in IC50: 7 fold
[6]
  EC50 blocking infection of target cells: 0.5 ng/mL
[7]
  Fold Change in IC50: 912 fold
[8]
  Fold Change in IC50: 42 fold
[9]
  stability of the solution (peptide remaining in solution): minimal peptide detected in solution
[10]
  concentration achievable in an injectable aqueous solution without problems of solubility and stability: ≤ 100 mg/mL
